# Laboratory results from patent US8178506B2, “Oligomeric compounds and compositions for use in modulation of small non-coding RNAs” (Regulus Therapeutics Inc., priority 2003, dated 2012).
# In the oligonucleotide strings, read from the 5' end, every base follows the letter of its sugar. An asterisk marks phosphorothioate; unmarked linkages are phosphodiester. Other units and linkages are bracketed, terminal groups are in braces. A string of capitals states the bases alone. e = 2'-O-(2-methoxyethyl) (MOE); [5mC] = 5-methylcytosine
# Tested on: mir-15a pri-miRNA
# Assay: mir-15a pri-miRNA expression in T47D cells (real-time RT-PCR)
# Assay type: cell-based, human
# Conditions: real-time RT-PCR
# Outline: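 T47D cells transfected with 100 nM uniform 2′-MOE or gapmer oligomers. Pri-miRNA measured by real-time RT-PCR with a mir-15a-specific primer/probe set, normalized to 5.8S rRNA, expressed as percentage of untreated control RNA levels.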
row,Substance,mir-15a pri-miRNA expression % UTC
1,327901 (antisense eT*eG*eA*eG*e[5mC]*eT*eA*e[5mC]*eA*eG*eT*eG*e[5mC]*eT*eT*e[5mC]*eA*eT*e[5mC]*eT*e[5mC]*eA) [compound 327901],132 % UTC
2,327951 (antisense e[5mC]*eA*e[5mC]*eA*eA*eA*e[5mC]*e[5mC]*eA*eT*eT*eA*eT*eG*eT*eG*e[5mC]*eT*eG*e[5mC]*eT*eA) [compound 327951],713 % UTC
